Source: patent US4791215A, “Derivatives of glutamic acid and aspartic acid” (priority 1984, dated 1988)

Test system: morphine analgesia
Experiment: Increase in analgesia of morphine, Tail Flick Test (Experiment 1)
Type: in vivo, rats
Details: for percentage variation of latency of pain sensation / M (10-90) ± SE, mean percentage variation of latency: compound 10 mg/kg i.p. + morphine 2 mg/kg; for M (10-90) ± SE, mean percentage variation of latency: mean 10-90 min; for Power ratio with respect to morphine alone: rat, in vivo
Procedure: Experiment No: 1 Increase in analgesia of analgesic-narcotic drugs in rats by the Tail Flick Test
The method is that described by Harris et al. (J. Pharmacol. Exp. Ther. 143 (1964) 141-148).
Male rats are used having a weight of about 150-200 g which have not fasted. A point on the tail is chosen and irradiated by a heat source (75° C.) and the time (in seconds) for which the animal remains without moving its tail is measured.
A maximum period of time of 8 seconds under the heat source is chosen, after which the animal is, in any case, removed to avoid tissue damage. The measurement is effected before (controls) and after treatment with the drugs.
The percentage variation is calculated for each individual animal by the following formula: [formula] The measurements were carried out 10, 20, 30, 45, 60 and 90 minutes after treatment with the analgesics.

| SMILES | percentage variation of latency of pain sensation (10') [%] | percentage variation of latency of pain sensation (20') [%] | percentage variation of latency of pain sensation (30') [%] | percentage variation of latency of pain sensation (45') [%] | percentage variation of latency of pain sensation (60') [%] | percentage variation of latency of pain sensation (90') [%] | M (10-90) ± SE, mean percentage variation of latency [%] | Power ratio with respect to morphine alone |
| --- | --- | --- | --- | --- | --- | --- | --- | --- |
| CCN(CC)C(=O)C(CCC(=O)O)NC(=O)c1ccc(C)c(C)c1 (stereo not shown) [Compound C-40] | 43.8 ± 15 | 69.1 | 49.0 ± 23 | 85.6 ± 6 | 76.5 ± 17 | 61.5 ± 14 | 64.2 ± 16 | 2.15 |
| CCCCN(CCCC)C(=O)C(CCC(=O)O)NC(=O)c1cccc(C)c1 (stereo not shown) [Compound C-53] | 31.2 ± 15 | 46.7 ± 28 | 70.2 ± 23 | 76.9 ± 22 | 45.6 ± 27 | 12.6 ± 25 | 47.2 ± 24 | 1.58 |
| Cc1ccc(C(=O)NC(CCC(=O)O)C(=O)N2CCOCC2)cc1C (stereo not shown) [Compound C-51] | 78.7 ± 18 | 82.8 | 90.5 ± 10 | 86.4 ± 14 | 65.6 ± 13 | 48.5 ± 10 | 75.4 ± 16 | 2.53 |
| CCCCNC(=O)C(CCC(=O)O)NC(=O)c1ccc(CCC)cc1 (stereo not shown) [Compound C-44] | -1.6 ± 11 | 17.0 ± 6 | 24.9 | 26.9 ± 19 | 35.1 ± 17 | 39.8 ± 8 | 23.7 ± 15 | 0.79 |
| Cc1ccc(C(=O)NC(CCC(=O)O)C(=O)N(C)C)cc1C (stereo not shown) [Compound C-50] | 22.3 ± 13 | 68.9 ± 9 | 60.2 ± 19 | 49.4 ± 14 | 73.5 ± 15 | 24.7 ± 6 | 49.8 ± 22 | 1.67 |
| CCCNC(=O)CCC(NC(=O)c1ccc(C)c(C)c1)C(=O)O [Compound D-16] | 29.7 ± 21 | 42.8 ± 18 | 40.1 ± 22 | 35.4 ± 18 | 33.3 ± 20 | 23.3 | 34.1 ± 17 | 1.14 |
| CCCCNC(=O)C(CCC(=O)O)NC(=O)c1ccc(CC)cc1 (stereo not shown) [Compound C-43] | 54.1 ± 17 | 44.4 ± 23 | 38.9 ± 26 | 36.8 ± 27 | 47.8 ± 23 | 22.5 ± 13 | 40.7 ± 11 | 1.36 |
| CCCNC(=O)C(CCC(=O)O)NC(=O)c1ccc(C)c(C)c1 (stereo not shown) [Compound C-45] | 57.2 ± 18 | 99.7 ± 0.3 | 95.7 ± 4 | 93.1 ± 7 | 77.7 ± 11 | 80.4 | 84.0 ± 16 | 2.82 |
